Values joined by “and” are separate entries in the source; they are usually repeats but may differ in a detail not shown here. Equal entries are not always repeated. {Fam-L(2)} = N-terminal fluorescein (Fam) label attached through linker L(2); {L(1)} = linker L(1) as defined below the publication's; {Fam} = fluorescein (FAM) label at the N-terminus; {Lys-NH2} = C-terminal lysine amide
Legend:
complementary DNA = assay: Binding affinity for DNA: Tm between PNA and complementary DNA (UV absorbance at 260 nm); settings: 4 μM PNA oligomer and 4 μM DNA, aq buffer pH 7.16, 10 mM sodium phosphate, 100 mM NaCl
Description: (§1) PNA oligomers of this invention were evaluated for their binding affinity for DNA by measuring Tm values as follows.
(§2) 4 μM PNA oligomer and 4 μM DNA were mixed in aq buffer (pH 7.16, 10 mM sodium phosphate, 100 mM NaCl), and incubated at 90° C. for a few minutes and slowly cooled down to RT. Then the solution was transferred into a 4 ml quartz cuvette and the cuvette was tightly sealed. The cuvette was mounted on an Agilent 8453 UV/Visible spectrophotometer and absorbance changes at 260 nm were recorded with increasing the temperature of the cuvette by either 0.5 or 1.0° C. per minute. From the absorbance vs temperature curve, the temperature showing the largest increase rate in absorbance was read out as the melting temperature Tm between PNA and DNA. DNAs for Tm measurement were purchased either from Bioneer, Inc. (www.bioneer.com, Daejon, South Korea) or from Ahram Biosystems (www.ahrambio.com, Seoul, South Korea), and used without further purification.
(§3) FIG. 3 provides graphs of absorbance changes with temperature for Oligo 17 against complementary or mismatch DNA. For sequences of the mismatch DNAs against Oligo 17, refer to Table 2. In FIG. 3, there is a transition temperature in each curve, which was read out as the Tm value for the curve.
(§4) Tm values are provided in Table 2 for PNA oligomers of this invention. These Tm values are presented for illustrative purposes only and should not be interpreted as a restriction to this invention.

mismatch DNA = assay: Binding affinity for DNA: Tm between PNA and mismatch DNA (UV absorbance at 260 nm); settings: for decreases in Tm with single base mismatches: single base mismatch versus complementary DNA
Description: as §1, §2, §3, §4

HeLa cells = assay: Cell penetration of fluorescein-tagged PNA oligomers, confocal fluorescence microscopy; format: cell-based, human
Description: (§5) In order to evaluate the cell penetration ability of PNA oligomers of this invention, cancer cells of human origin were treated with PNA oligomers covalently tagged with fluorescein. The applied method is provided in brief as follows.
(§6) To each cover glass (autoclaved) placed in each well of a 24-well plate, were seeded 20,000˜100,000 cells depending on the growth rate of the cell line used, and the cells were cultured at 37° C. and 5% CO2 for 16 to 24 h. Then the medium was replaced with 500 μl fresh Opti-MEM medium (with or without 1% FBS), to which was added an aliquot of aq stock solution of a PNA oligomer covalently tagged with fluorescein. After cells were cultured for a designated interval, the cells were washed with PBS, and fixed by incubating in 3.7% or 4% paraformaldehyde. The cells were thoroughly washed several times with PBS or PBS containing 0.1% Tween-20. Then the cover glass was mounted onto a slide glass using a drop of mounting solution and sealed with nail polish for confocal fluorescence microscopy. Fluorescence images were taken either on a Zeiss LSM 510 confocal microscope (Germany) at 63× objective or on a Nikon C1Si confocal microscope at 40× objective.

A549 cells = assay: as above; format: cell-based, human; settings: 2 μM, 24 h, without FBS, 40× objective
Description: as §5, §6

JAR cells = assay: as above; format: cell-based, human; settings: 2 μM, 24 h, without FBS, 40× objective
Description: as §5, §6

mdm2 = assay: Antisense example: inhibition of ribosomal synthesis of mdm2 in JAR cells, western blotting; format: cell-based, human; settings: 15 h
Description: The following antisense example is presented for illustrative purposes only and should not be interpreted as a restriction to the present invention.
JAR cells (ATCC catalog #HTB-144) were grown in RPMI-1640 medium supplemented with 10% FBS and 1% penicillin-streptomycin at 37° C. and 5% CO2. Cells were then seeded into each well of a 12-well plate containing 1 ml of the same medium, and treated with an aliquot of an aqueous stock solution of Oligo 9 or […] of a designated concentration. Then the cells were incubated at 37° C. and 5% CO2 for 15 h.
The cells in each well were washed with cold PBS and treated with 80 μl RIPA buffer containing 1% protease inhibitors cocktail, and the plate was incubated at 4° C. and agitated slowly for 15 min. The content of each well was scraped out into a microtube. The microtube was incubated in ice for 10 min and centrifuged at 10,000 g. The resulting supernatant was collected and subjected to protein quantification by Bradford assay and western blot analysis. For electrophoresis, 20 μg of protein was loaded onto each lane of the gel in a minigel apparatus, separated and transferred onto a PVDF membrane (0.45μ, Millipore). The primary mdm2 antibody used for western blotting was SC-965 (Santa Cruz Biotechnology).
FIG. 9 provides western blotting results for JAR cells treated with 5 μM or 10 μM Oligo 9, 5 μM or 10 μM Oligo 10, cotreatment with the oligomers at 5 μM or 10 μM each, and blank (no oligomer treatment).

[1] = 5 μM, 1, 2, 3 and 24 h, without FBS, 63× objective
[2] = 2 μM, 12 h, without FBS, 40× objective

In the case of “CA(2O2)T-A(2O2)GT-A(2O2)TA-A(2O2)GT-NH2 (CATAGTATAAGT; chemistry not fully specified) [Oligo 18, modified PNA oligomer]”, the “Tm between PNA and complementary DNA” value (complementary DNA) is reported as 66 °C.

In the case of “CA(3)T-A(3)GT-A(3)TA-A(3)GT-NH2 (CATAGTATAAGT; chemistry not fully specified) [Oligo 12]”, the “Tm between PNA and complementary DNA” value (complementary DNA) is reported as 60 °C.

In the case of “CA(4)T-A(4)GT-A(4)TA-A(4)GT-NH2 (CATAGTATAAGT; PNA-like chain with modified monomers A(5)/A(4), C-terminal amide, codes undefined, further chemistry not given here) [Oligo 13, modified PNA oligomer]”, the “Tm between PNA and complementary DNA” value (complementary DNA) is reported as 64 °C.

“CA(5)T-A(5)GT-A(5)TA-A(5)GT-Lys-NH2 (CATAGTATAAGT; modified PNA, C-terminal Lys-NH2, chemistry not fully specified) [Oligo 17, modified PNA oligomer]” was tested, and the “Tm between PNA and complementary DNA” value (complementary DNA) was 72 °C, the “Tm between PNA and mismatch DNA” value (mismatch DNA; mismatch (T → A), DNA ACT-TAA-ACT-ATG) was 59 °C and the “Tm between PNA and mismatch DNA” value (mismatch DNA; mismatch (T → C), DNA ACT-TAC-ACT-ATG) was 61 °C. The “Tm between PNA and mismatch DNA” value (mismatch DNA; mismatch (T → G), DNA ACT-TAG-ACT-ATG) was 58 °C and the “decreases in Tm with single base mismatches” value (mismatch DNA) was 11˜14 °C.

In the case of “CA(5)T-A(5)GT-A(5)TA-A(5)GT-NH2 (CATAGTATAAGT; chemistry not fully specified) [Oligo 14, modified PNA oligomer]”, the “Tm between PNA and complementary DNA” value (complementary DNA) is reported as 69 °C.

In the case of “CA(7)T-A(7)GT-A(7)TA-A(7)GT-NH2 (CATAGTATAAGT; chemistry not fully specified) [Oligo 15, modified PNA oligomer]”, the “Tm between PNA and complementary DNA” value (complementary DNA) is reported as 71 °C.

In the case of “CAT-AGT-ATA-AGT-Lys-NH2 (CATAGTATAAGT; all peptide nucleic acid (PNA), 3' {Lys-NH2}) [Oligo 16, unmodified PNA oligomer, reference compound]”, the “Tm between PNA and complementary DNA” value (complementary DNA) is reported as 56 °C.

With “CAT-AGT-ATA-AGT-NH2 (CATAGTATAAGT; chemistry not fully specified) [Oligo 27, unmodified PNA oligomer, reference compound]” the “Tm between PNA and complementary DNA” value (complementary DNA) was 55 °C.

In the case of “Fam-L(1)L(1)-TGC(1O3)-TAC(1O3)-TAC(1O3)-TG-Lys-NH2 (TGCTACTACTG; Fam-L(1)L(1) N-term, Lys-NH2, modified PNA, chemistry not fully specified) [Oligo 1, fluorescein-tagged modified PNA oligomer]”, the “cell penetration, fluorescence intensity” value (HeLa cells; 1 μM, 6 or 24 h, with 1% FBS, 40× objective) is reported as “fluorescence intensity is faint even at 24 h” and the “cell penetration, fluorescence intensity” value (HeLa cells; [1]) is reported as “fluorescence intensity is clear and becomes intense over 24 h”.

With “Fam-L(1)L(1)-TGC-TAC-TAC-TG-Lys-NH2 (TGCTACTACTG; all peptide nucleic acid (PNA), 5' {Fam}-{L(1)}-{L(1)}, 3' {Lys-NH2}) [Oligo 2, fluorescein-tagged 'unmodified' PNA oligomer, reference compound]” the “cell penetration, fluorescence intensity” value (HeLa cells; [1]) was “fluorescence intensity is faint”.

“Fam-L(2)-CA(5)T-A(4g)GT-A(4g)TA(5)-AGT-Lys-NH2 (CATAGTATAAGT; Fam-L(2) label, modified PNA, Lys-NH2, chemistry not fully specified) [Oligo 24, fluorescein-tagged modified PNA oligomer]” was tested, and the “Tm between PNA and complementary DNA” value (complementary DNA) was 70 °C.

“Fam-L(2)-TG(5)G-C(1O2)AA-C(1O2)TG-A(5)T-Lys-NH2 (TGGCAACTGAT; Fam-L(2) label, modified PNA, Lys-NH2, chemistry not fully specified) [Oligo 21, fluorescein-tagged modified PNA oligomer]” was tested, and the “cell penetration, fluorescence intensity” value (A549 cells) was “fluorescence intensity is strong”, the “cell penetration, fluorescence intensity” value (HeLa cells; [2]) was “fluorescence intensity is apparent” and the “cell penetration, fluorescence intensity” value (HeLa cells; 2 μM, 24 h, without FBS, 40× objective) was “significantly stronger than that in FIG. 7(e)”. For the same substance, the “cell penetration, fluorescence intensity” value (JAR cells) was “fluorescence intensity is strong”.

“Fam-L(2)-TGG-CAA-CTG-AT-Lys-NH2 (TGGCAACTGAT; all peptide nucleic acid (PNA), 5' {Fam-L(2)}, 3' {Lys-NH2}) [Oligo 28, fluorescein-tagged 'unmodified' PNA oligomer, reference compound]” was tested, and the “cell penetration, fluorescence intensity” value (A549 cells) was “no significant fluorescence intensity”, the “cell penetration, fluorescence intensity” value (HeLa cells; [2]) was “no significant fluorescence intensity” and the “cell penetration, fluorescence intensity” value (JAR cells) was “no significant fluorescence intensity”.

With “GC(1O2)A-C(1O2)AT-TTG-C(1O2)CT-NH2 (GCACATTTGCCT; chemistry not fully specified) [Oligo 10, modified PNA oligomer]” the “inhibition of ribosomal synthesis of mdm2” value (shortened to “inhibition”) (mdm2; 5 μM) was “significantly inhibited” and the “inhibition” value (mdm2; 10 μM) was “significantly inhibited”.

“GC(2O2)A-C(2O2)AT-TTG-C(2O2)CT-NH2 (GCACATTTGCCT; chemistry not fully specified) [Oligo 9]” was tested, and the “inhibition” value (mdm2; 5 μM) was “significantly inhibited” and the “inhibition” value (mdm2; 10 μM) was “significantly inhibited”.

For “GCA-CAT-TTG-CCT-Lys-NH2 (GCACATTTGCCT; all peptide nucleic acid (PNA), 3' {Lys-NH2}) [Oligo 11, unmodified PNA oligomer, reference compound]”, the “Tm between PNA and complementary DNA” value (complementary DNA) was 58 °C and 59 °C.

With “TG(5)G-C(1O2)AA-C(1O2)TG-A(5)T-Lys-NH2 (TGGCAACTGAT; modified PNA, C-terminal Lys-NH2, chemistry not fully specified) [Oligo 20, modified PNA oligomer]” the “Tm between PNA and complementary DNA” value (complementary DNA) was 84 °C, the “Tm between PNA and mismatch DNA” value (mismatch DNA; mismatch (G → A), DNA ATC-AAT-TGC-CA) was 65 °C and the “Tm between PNA and mismatch DNA” value (mismatch DNA; mismatch (G → T), DNA ATC-ATT-TGC-CA) was 62 °C. For the same substance, the “decreases in Tm with single base mismatches” value (mismatch DNA) was 19˜22 °C.

“TGC(1O3)-TAC-TAC(1O3)-TG-Lys-NH2 (TGCTACTACTG; modified PNA, C-terminal Lys-NH2, chemistry not fully specified) [Oligo 3, modified PNA oligomer]” was tested, and the “Tm between PNA and complementary DNA” value (complementary DNA) was 65 °C.

For “TGC(2O2)-TAC-TAC(2O2)-TG-Lys-NH2 (TGCTACTACTG; modified PNA, monomer codes such as C(1O3), A(5) undefined, C-terminal Lys-NH2, further chemistry not given here) [Oligo 8, modified PNA oligomer]”, the “Tm between PNA and complementary DNA” value (complementary DNA) was 68 °C.

In the case of “TGC-TAC(1O3)-TAC-TG-Lys-NH2 (TGCTACTACTG; modified PNA, monomer codes such as C(1O3), A(5) undefined, C-terminal Lys-NH2, further chemistry not given here) [Oligo 4, modified PNA oligomer]”, the “Tm between PNA and complementary DNA” value (complementary DNA) is reported as 61 °C.

“TGC-TAC-TAC-TG-Lys-NH2 (TGCTACTACTG; all peptide nucleic acid (PNA), 3' {Lys-NH2}) [Oligo 5, unmodified PNA oligomer, reference compound]” was tested, and the “Tm between PNA and complementary DNA” value (complementary DNA) was 55 °C.

Reference: patent US8680253B2 (OliPass Corporation, priority 2008, dated 2014)
